From US20080171784A1, “Methods For the Stabilization of Atorvastatin” (ZENTIVA, A.S., priority 2003, published 2008) come the findings set out here.

Holding throughout (assay type): physicochemical
Data set [1] in a line: Oxidation of 1% atorvastatin solution in ethyl acetate-acetonitrile (1:1) at 40° C. Here is the method: In order to precisely determine the decomposition mechanism, the following experiments examining only the oxidative decomposition of atorvastatin were carried out. A recent publication/Pharmaceutical Development and Technology, 7(1), 1-32 (2002)/described a set of experiments which are suitable for the recognition of oxidation of substances and for the determination of its mechanism.
The following experiments were carried out:
a. oxidation of a 1% solution of atorvastatin in the system of ethyl acetate-acetonitrile (1:1) at 40° C. using a radical initiator (2,2′-azobiscyanopentanoic acid) at a pressure of 1 MPa of oxygen; b. oxidation of a 1% solution of atorvastatin in the system of ethyl acetate-acetonitrile (1:1) at 40° C. without a radical initiator; c. control experiment in the system of ethyl acetate-acetonitrile (1:1) at 40° C. using a radical initiator (2,2′-azobiscyanopentanoic acid) in an inert atmosphere of argon (the partial pressure of oxygen found as being about 1 kPa).

Data set [2] is described as follows: Set of stress tests of atorvastatin (HPLC). How it is done: The following experiments were carried out in order to determine the instability of atorvastatin. The purpose was to find out which factors lead to the degradation of the product. • 1. Set of stress tests. The stock solution of atorvastatin (2 ml) was gradually subjected to the following experiments: a. boil (24 hr) with 2 ml of 0.2 N hydrochloric acid, b. boil (24 hr) with 2 ml of 0.2 N acetic acid, c. boil (24 hr) with 2 ml of 0.2 N sodium hydroxide, d. boil (24 hr) with 2 ml of 4% hydrogen peroxide, e. boil (24 hr) with 2 ml of water, f. irradiation with UV radiation (5 hr), g. irradiation with visible light (24 hr), h. solid substance heated at 100° C. for 24 hr, i. solid substance subjected to UV radiation (5 hr), j. solid substance subjected to visible light (24 hr).

Data set [3] is described as follows: Stability tests of solid amorphous atorvastatin in different packages and oxygen partial pressures. How it is done:
In order to make the carried-out experiments more precise, stability tests of solid amorphous atorvastatin and of several selected dosage forms were established. As to containers, polyethylene (PE) and an aluminium foil with a sealable PE layer (Al+PE) were used. Some of the stability data were determined in nitrogen atmosphere (N2) (with a partial pressure of oxygen of roughly 3 kPa).

A short description of data set [4]: Example 1: amorphous atorvastatin sealed in aluminium foil with oxygen absorbers, 80° C., 72 hr (HPLC). Here is the method:
Amorphous atorvastatin (1 g) was sealed in a sealable aluminium foil together with the oxygen absorber Ageless® Z100 (Mitsubishi) or with the absorber of oxygen and carbon dioxide Ageless® E100 (Mitsubishi) and the sample was heated at 80° C. for 72 hr. The reference sample was prepared and heated in the same way without the use of absorbers.

Data set [5] can be described thus: Example 7: test of stability under reduced pressure. How it is done:
A pure amorphous atorvastatin substance was close din a tempered box under air pressure of 5.5-7.5 kPa. The partial pressure of oxygen was estimated as 1.2-1.5 kPa
The measurement has given the following results:
For comparison, sample 0010903/18 was kept in a thermostat at 80° C. under normal atmospheric pressure, i.e. partial pressure of oxygen about 18 kPa for 160 hours.

Data set [6] in a line: Example 2: amorphous atorvastatin sealed in aluminium foil with oxygen absorbers, 40° C., 1.5 months (HPLC). How it is done:
Amorphous atorvastatin (1 g) was sealed in a sealable aluminium foil together with the oxygen absorber Ageless® Z100 (Mitsubishi) or with the absorber of oxygen and carbon dioxide Ageless® E100 (Mitsubishi) and the sample was heated at 40° C. for 1.5 months. The reference sample was prepared and heated in the same way without the use of absorbers.

Setting [7] is: 80° C., 72 hr, oxygen absorber Ageless Z100.
[8] abbreviates: 80° C., 72 hr, oxygen and carbon dioxide absorber Ageless E100.
The mark [9] stands for this setting: 80° C., 72 hr, reference sample without absorbers.
[10] abbreviates: 40° C., 1.5 months, oxygen absorber Ageless Z100.
Where [11] appears, read: 40° C., 1.5 months, oxygen and carbon dioxide absorber Ageless E100.
Setting [12] is: 40° C., 1.5 months, reference sample without absorbers.

Counter-ions that a name gives are not always drawn.

Take `CC(C)c1c(C(=O)Nc2ccccc2)c(-c2ccccc2)c(-c2ccc(F)cc2)n1CC[C@@H](O)C[C@@H](O)CC(=O)O` [atorvastatin, hemicalcium salt of (3R,5R) 7-[3-phenyl-4-phenylcarbamoyl-2-(4-fluorophenyl)-5-isopropylpyrrol-1-yl]-3,5-dihydroxyheptanoic acid]: the Impurities in data set [1] (0 hours, entry sample) was 0.49%; in data set [1] (24 hours, radical initiator no, PO 1 MPa, 40° C.), 9.27%; in data set [1] (24 hours, radical initiator yes, PO 0.001 MPa (argon), 40° C.) it was 0.98%; in data set [1] (24 hours, radical initiator yes, PO 1 MPa, 40° C.), 6.42%; in data set [1] (48 hours, radical initiator yes, PO 0.001 MPa (argon), 40° C.) it was 1.38%; in data set [1] (48 hours, radical initiator yes, PO 1 MPa, 40° C.), 24.37%. Also, the Impurities in data set [1] (72 hours, radical initiator yes, PO 1 MPa, 40° C.) was 30.93%. Also, the “Content of Atorvastatin” value in data set [2] (5 hr under UV in water) is 64.3%; in data set [2] (solid substance 5 hr, UV), 99.3%; in data set [2] (solid substance 24 hr, 100° C.) it was 96.3%; in data set [2] (solid substance 24 hr, visible light) it was 96.5%; in data set [2] (solution, 24 hr in the light (visible)) it was 104.5%; in data set [2] (stock solution, 24 hr boil in 0.1 N AcOH) it was 83.2%. Further, the “Content of Atorvastatin” value came out at 2.1% in data set [2] (stock solution, 24 hr boil in 0.1 N HCl); 72.0% in data set [2] (stock solution, 24 hr boil in 0.1 N NaOH); 54.8% in data set [2] (stock solution, 24 hr boil in 2% H2O2); 88.4% in data set [2] (stock solution, 24 hr boil in water).
Turning to “hemicalcium salt of (3R,5R) 7-[3-phenyl-4-phenylcarbamoyl-2-(4-fluorophenyl)-5-isopropylpyrrol-1-yl]-3,5-dihydroxyheptanoic acid [amorphous atorvastatin]”, the Impurities in data set [3] (0 months, entry) came to 0.21%; in data set [3] (3 months, 5 ° C., package 2x RE, PO 18 kPa) it was 0.39%; in data set [3] (3 months, 5 ° C., package PE + Al, PO 3 kPa (N2)), 0.34%; in data set [3] (3 months, 5 ° C., package PE + Al, PO 18 kPa), 0.34%; in data set [3] (3 months, 25 ° C., package 2x PE, PO 18 kPa), 0.77%; in data set [3] (3 months, 25 ° C., package PE + Al, PO 3 kPa (N2)), 0.43%. In addition, the Impurities in data set [3] (3 months, 25 ° C., package PE + Al, PO 18 kPa) is 0.63%; in data set [3] (6 months, 5 ° C., package 2x PE, PO 18 kPa), 0.83%; in data set [3] (6 months, 5 ° C., package PE + Al, PO 3 kPa (N2)), 0.44%; in data set [3] (6 months, 5 ° C., package PE + Al, PO 18 kPa), 0.71%. In addition, the “Lactone of Atorvastatin” value is 0.19% in data set [4] (setting [7]); 0.14% in data set [4] (setting [8]); 0.33% in data set [4] (setting [9]); 0% in data set [4] (Initial); 0% in data set [6] (setting [10]); 0.06% in data set [6] (setting [11]). The “Lactone of Atorvastatin” value in data set [6] (setting [12]) was 0.22%; in data set [6] (Initial), 0%. Besides, the “Total Impurities” value in data set [4] (setting [7]) turned out to be 0.64%; in data set [4] (setting [8]) it was 0.60%; in data set [4] (setting [9]), 1.32%; in data set [4] (Initial) it was 0.49%; in data set [5] (air pressure 5.5-7.5 kPa (PO 1.2-1.5 kPa), 55 hrs, 60-65 ° C.) it was 0.33%; in data set [5] (air pressure 5.5-7.5 kPa (PO 1.2-1.5 kPa), 160 hrs, 80-82 ° C.), 0.37%. Also, the “Total Impurities” value in data set [5] (air pressure 5.5-7.5 kPa (PO 1.2-1.5 kPa), 23 days, 20-25 ° C.) worked out at 0.29%; in data set [5] (air pressure 5.5-7.5 kPa (PO 1.2-1.5 kPa), 42 days, 40-42 ° C.) it was 0.35%; in data set [5] (normal atmospheric pressure, PO about 18 kPa, 80° C., 160 hours), 1.92%; in data set [6] (setting [10]), 0.36%; in data set [6] (setting [11]) it was 0.46%; in data set [6] (setting [12]) it was 1.55%. For the same compound, the “Total Impurities” value in data set [6] (Initial) is recorded as 0.49%.
